Laboratory results from US10696615B2, “Prenylated hydroxystilbenes” (The University of Sydney, priority 2011, dated 2020).

Key:
Type in all cases: cell-based, human
HL-60 (TB) = test: NCI in vitro cancer screen, Leukemia; conditions: HL-60(TB), Leukemia
K-562 = test: NCI in vitro cancer screen, Leukemia; conditions: K-562, Leukemia
MOLT-4 = test: NCI in vitro cancer screen, Leukemia; conditions: MOLT-4, Leukemia
RPMI-8226 = test: NCI in vitro cancer screen, Leukemia; conditions: RPMI-8226, Leukemia
SR = test: NCI in vitro cancer screen, Leukemia; conditions: Leukemia
HOP-62 = test: NCI in vitro cancer screen, Non-Small Cell Lung Cancer; conditions: HOP-62, Non-Small Cell Lung Cancer
HOP-92 = test: as above; conditions: HOP-92, Non-Small Cell Lung Cancer
NCI-H23 = test: as above; conditions: NCI-H23, Non-Small Cell Lung Cancer
NCI-H460 = test: as above; conditions: NCI-H460, Non-Small Cell Lung Cancer
COLO 205 = test: NCI in vitro cancer screen, Colon Cancer; conditions: COLO 205, Colon Cancer
HCT-116 = test: NCI in vitro cancer screen, Colon Cancer; conditions: HCT-116, Colon Cancer
HT29 = test: NCI in vitro cancer screen, Colon Cancer; conditions: HT29, Colon Cancer
SF-295 = test: NCI in vitro cancer screen, CNS Cancer; conditions: SF-295, CNS Cancer
SNB-19 = test: NCI in vitro cancer screen, CNS Cancer; conditions: SNB-19, CNS Cancer
LOX IMVI = test: NCI in vitro cancer screen, Melanoma; conditions: Melanoma
M14 = test: NCI in vitro cancer screen, Melanoma; conditions: M14, Melanoma
SK-MEL-28 = test: NCI in vitro cancer screen, Melanoma; conditions: SK-MEL-28, Melanoma
SK-MEL-5 = test: NCI in vitro cancer screen, Melanoma; conditions: SK-MEL-5, Melanoma
UACC-257 = test: NCI in vitro cancer screen, Melanoma; conditions: UACC-257, Melanoma
UACC-62 = test: NCI in vitro cancer screen, Melanoma; conditions: UACC-62, Melanoma
OVCAR-4 = test: NCI in vitro cancer screen, Ovarian Cancer; conditions: OVCAR-4, Ovarian Cancer
OVCAR-5 = test: NCI in vitro cancer screen, Ovarian Cancer; conditions: OVCAR-5, Ovarian Cancer
OVCAR-8 = test: NCI in vitro cancer screen, Ovarian Cancer; conditions: OVCAR-8, Ovarian Cancer
ADR-RES (NCI/ADR-RES) = test: NCI in vitro cancer screen, Ovarian Cancer; conditions: NCI/ADR-RES, Ovarian Cancer
SK-OV-3 = test: NCI in vitro cancer screen, Ovarian Cancer; conditions: SK-OV-3, Ovarian Cancer
786-0 = test: NCI in vitro cancer screen, Renal Cancer; conditions: 786-0, Renal Cancer
RXF-393 = test: NCI in vitro cancer screen, Renal Cancer; conditions: RXF 393, Renal Cancer
UO-31 = test: NCI in vitro cancer screen, Renal Cancer; conditions: UO-31, Renal Cancer
DU-145 = test: NCI in vitro cancer screen, Prostate Cancer; conditions: DU-145, Prostate Cancer
T-47D = test: NCI in vitro cancer screen, Breast Cancer; conditions: Breast Cancer
MDA-MB-468 = test: NCI in vitro cancer screen, Breast Cancer; conditions: MDA-MB-468, Breast Cancer
[1] = Homo sapiens, read-out: LC50 (the source's name)

SMILES: CC(C)=CCOc1cc(O)cc(/C=C/c2ccc(O)c(O)c2)c1CC=C(C)C [USYDS14, (E)-2-(3-methyl-2-buten-1-yl)-3-(3-methyl-2-butenyloxy)-3′,4′,5-trihydroxystilbene]
- TGI (HL-60 (TB)): 16.3 µM
- GI50 (HL-60 (TB); Homo sapiens): 4.06 µM
- CC50 (HL-60 (TB); [1]): > 100 µM
- GI50 (K-562; Homo sapiens, K562): 0.833 µM
- CC50 (K-562; Homo sapiens, K562, read-out: LC50 (the source's name)): > 100 µM
- TGI (K-562): 14.2 µM
- GI50 (MOLT-4; Homo sapiens): 4.03 µM
- CC50 (MOLT-4; [1]): > 100 µM
- TGI (MOLT-4): 21 µM
- GI50 (RPMI-8226; Homo sapiens): 4.07 µM
- CC50 (RPMI-8226; [1]): > 100 µM
- TGI (RPMI-8226): 24.5 µM
- GI50 (SR; Homo sapiens): 0.67 µM
- CC50 (SR; [1]): > 100 µM
- TGI (SR): 24.6 µM
- TGI (HOP-62): 3.77 µM
- GI50 (HOP-62; Homo sapiens): 1.43 µM
- CC50 (HOP-62; [1]): 9.98 µM
- TGI (HOP-92): 7.58 µM
- GI50 (HOP-92; Homo sapiens): 1.49 µM
- CC50 (HOP-92; [1]): 32.9 µM
- GI50 (NCI-H23; Homo sapiens): 2.92 µM
- LC50 (NCI-H23; Homo sapiens): 57.6 µM
- TGI (NCI-H23): 17.3 µM
- GI50 (NCI-H460; Homo sapiens): 3.87 µM
- CC50 (NCI-H460; [1]): 51.2 µM
- TGI (NCI-H460): 14.9 µM
- TGI (COLO 205): 28.5 µM
- GI50 (COLO 205; Homo sapiens): 14.6 µM
- CC50 (COLO 205; [1]): 55.7 µM
- TGI (HCT-116): 16 µM
- GI50 (HCT-116; Homo sapiens): 4.2 µM
- LC50 (concentration killing 50% of cells) (HCT-116; Homo sapiens): 46.6 µM
- TGI (HT29): 29.1 µM
- GI50 (HT29; Homo sapiens, HT-29): 14 µM
- CC50 (HT29; Homo sapiens, HT-29, read-out: LC50 (the source's name)): 60.9 µM
- GI50 (SF-295; Homo sapiens): 3.91 µM
- CC50 (SF-295; [1]): 43.1 µM
- TGI (SF-295): 15.3 µM
- GI50 (SNB-19; Homo sapiens): 5.01 µM
- CC50 (SNB-19; [1]): 52.2 µM
- TGI (SNB-19): 20.1 µM
- GI50 (LOX IMVI; Homo sapiens): 1.36 µM
- CC50 (LOX IMVI; [1]): 8.35 µM
- TGI (LOX IMVI): 3.37 µM
- GI50 (M14; Homo sapiens): 2.95 µM
- CC50 (M14; [1]): 50 µM
- TGI (M14): 13.6 µM
- GI50 (SK-MEL-28; Homo sapiens): 3.05 µM
- LC50 (SK-MEL-28; Homo sapiens): 41.6 µM
- TGI (SK-MEL-28): 16.4 µM
- GI50 (SK-MEL-5; Homo sapiens): 0.554 µM
- CC50 (SK-MEL-5; [1]): 4.46 µM
- TGI (SK-MEL-5): 1.87 µM
- GI50 (UACC-257; Homo sapiens): 10.2 µM
- CC50 (UACC-257; [1]): 54 µM
- TGI (UACC-257): 23.5 µM
- GI50 (UACC-62; Homo sapiens): 2.61 µM
- CC50 (UACC-62; [1]): 39.1 µM
- TGI (UACC-62): 13.2 µM
- GI50 (OVCAR-4; Homo sapiens): 2.98 µM
- CC50 (OVCAR-4; [1]): 38.6 µM
- TGI (OVCAR-4): 13.6 µM
- GI50 (OVCAR-5; Homo sapiens): 12.4 µM
- CC50 (OVCAR-5; [1]): 53.6 µM
- TGI (OVCAR-5): 25.8 µM
- GI50 (OVCAR-8; Homo sapiens): 3.59 µM
- CC50 (OVCAR-8; [1]): 64.9 µM
- TGI (OVCAR-8): 15.6 µM
- GI50 (ADR-RES (NCI/ADR-RES); Homo sapiens): 0.78 µM
- CC50 (ADR-RES (NCI/ADR-RES); [1]): 49.3 µM
- TGI (ADR-RES (NCI/ADR-RES)): 11.4 µM
- GI50 (SK-OV-3; Homo sapiens): 2.85 µM
- CC50 (SK-OV-3; [1]): 37.2 µM
- TGI (SK-OV-3): 13.7 µM
- TGI (786-0): 11.8 µM
- GI50 (786-0; Homo sapiens): 3.44 µM
- LC50 (50% net cell kill) (786-0; Homo sapiens): 40 µM
- GI50 (RXF-393; Homo sapiens): 1.07 µM
- CC50 (RXF-393; [1]): 14.8 µM
- TGI (RXF-393): 3.58 µM
- GI50 (UO-31; Homo sapiens): 3.71 µM
- CC50 (UO-31; [1]): 46.3 µM
- TGI (UO-31): 17.9 µM
- TGI (DU-145): 21.1 µM
- GI50 (DU-145; Homo sapiens): 8.2 µM
- CC50 (DU-145; [1]): 47.5 µM
- TGI (T-47D): 7.84 µM
- GI50 (T-47D; Homo sapiens, T47D): 2.71 µM
- CC50 (T-47D; Homo sapiens, T47D, read-out: LC50 (the source's name)): 61.8 µM
- GI50 (MDA-MB-468; Homo sapiens): 1.42 µM
- CC50 (MDA-MB-468; [1]): 16.4 µM
- TGI (MDA-MB-468): 4.12 µM
